In patent publication US20190352276A1, “INHIBITORS OF BRUTON'S TYROSINE KINASE” (Joint Stock Company "Biocad", priority 2016, published 2019):

How the values were obtained:
[1] = Permeability through the monolayer of Caco-2 cells; format: in vitro ADME; conditions: human; for Papp A→B at 2 h, 10 μM / Papp B→A at 2 h, 10 μM: 2 h at 37° C.; for efflux ratio at 2 h, 10 μM: read-out: efflux (Papp B-A/Papp A-B)
Summary of the method: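 Caco-2 monolayers grown 21 days on 0.4 μm transwell filters, integrity checked with Lucifer Yellow. Compounds at 10 μM were added apically at pH 6.5 (A→B) or basolaterally at pH 7.4 with 1% BSA (B→A) and sampled after 2 h. Concentrations by HPLC; Papp calculated, efflux ratio as Papp B-A/Papp A-B.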

ITK = biological target: T1, ITK (Homo sapiens, UniProt Q08881); experiment: In vitro kinase panel: ITK; format: biochemical; conditions: Table 9 kinase panel
T1 construct: purchased SignalChem I13-10G
T1 sequence (Q08881 1-620): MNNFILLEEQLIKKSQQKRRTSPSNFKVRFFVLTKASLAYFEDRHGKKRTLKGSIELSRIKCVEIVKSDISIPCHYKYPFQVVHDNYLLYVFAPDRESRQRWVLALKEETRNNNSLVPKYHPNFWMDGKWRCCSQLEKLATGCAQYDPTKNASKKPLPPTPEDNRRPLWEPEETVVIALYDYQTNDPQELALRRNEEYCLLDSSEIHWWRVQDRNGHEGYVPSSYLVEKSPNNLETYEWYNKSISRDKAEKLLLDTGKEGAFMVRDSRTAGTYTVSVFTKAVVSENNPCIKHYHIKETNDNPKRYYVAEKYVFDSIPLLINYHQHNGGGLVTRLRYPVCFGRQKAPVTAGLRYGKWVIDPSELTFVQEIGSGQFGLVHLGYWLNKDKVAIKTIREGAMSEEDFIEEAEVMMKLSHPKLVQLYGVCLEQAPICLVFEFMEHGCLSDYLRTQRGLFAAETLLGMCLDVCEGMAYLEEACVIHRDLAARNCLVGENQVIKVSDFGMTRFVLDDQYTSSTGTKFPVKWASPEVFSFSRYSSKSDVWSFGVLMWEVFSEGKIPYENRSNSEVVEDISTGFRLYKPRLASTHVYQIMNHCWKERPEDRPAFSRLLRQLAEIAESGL
Experimental: The measurements were carried out in a 25 μL reaction volume using a 96-well plate (Corning, #3642). The kinase enzyme and inhibitor were pre-incubated for 10 minutes in the reaction buffer containing 25 mM of MOPS (pH 7.2), 12.5 mM of 0-glycerophosphate, 27 mM of MgCl2, 2 mM of MnCl2, 5 mM of EGTA, 2 mM of EDTA, 0.3 mM of DTT, and 1.2 mg/mL of bovine serum albumin. Staurosporine (Abcam Biochemicals, ab146588) was used as a reference inhibitor and 0.1% DMSO in the reaction buffer—as a negative control. The solution of 0.5 mg/mL peptide substrate and 50 &M ATP in the same buffer were added; the solution was incubated for 180 minutes at 37° C. To detect the amount of ATP taken up during the kinase reaction, the equivalent amount of ADP (from the ADP Glo Detection Kit (Promega, #V9101)) was used according to the protocol. The reaction mixture was equilibrated to room temperature. 25 µL of ADP-Glo Reagent were added into each well; the plate was incubated for 40 minutes. 50 μL of Kinase Detection Reagent were added; the plate was incubated for 30 minutes. The luminescence was measured with multimode plate reader (Tecan Infinite M200Pro, Switzerland). IC50 values were calculated using Magellan 7.2 software (Tecan, Switzerland) approximating experimental points by four-parameter logistic model with the optimization by Levenberg-Marquardt.
For active compounds selected by screening using the target enzyme BTK, the values of IC50 were determined on a kinase panel: EGFR (SignalChem, #E10-11G), ITK (SignalChem, #I13-10G) and TEC (SignalChem, #T03-10G).

[2] = tested on: HepG2 cells (hepatocellular carcinoma); experiment: General cytotoxicity on HepG2 cells (CC50; therapeutic index CC50 HepG2/IC50 Mino); format: cell-based; conditions: therapeutic index
Summary of the method: (§1)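 Cells seeded at 2*10^4 per well in DMEM, compounds added after 24 h at 200 μM to 4 μM final and incubated 72 h. Viability read with Alamar Blue to derive CC50; therapeutic index is CC50 (HepG2) divided by IC50 (Mino).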

[3] = as above; format: cell-based; conditions: human, HepG2 cells (hepatocellular carcinoma), 72 hours, Alamar Blue
Summary of the method: as §1

[4] = Stability in human blood plasma; conditions: 10 μM in pooled human blood plasma, incubated 4 hours at 37° C.
[5] = Chemical stability in artificial gastric fluid (SGF without enzymes); conditions: 10 μM in SGF without enzymes, pH=1.4, 37° C.
[6] = Table 10, average of several tests

| Compound | Papp A→B at 2 h, 10 μM [1] | Papp B→A at 2 h, 10 μM [1] | efflux ratio at 2 h, 10 μM [1] | IC50 (ITK) | CC50 (HepG2)/IC50 (Mino) ([2]; Table 11) | CC50 at 72 h ([3]; Table 11) | CC50 (HepG2)/IC50 (Mino) ([2]; Table 10) | CC50 at 72 h [3, 6] | Amount of substance in the sample, % (stability in human blood plasma) [4] | Amount of substance in the sample in % (chemical stability) [5] |
| --- | --- | --- | --- | --- | --- | --- | --- | --- | --- | --- |
| C=CC(=O)N1CCC[C@@H](n2nc(-c3ccc(Oc4ccncc4)cc3)c3cncc(Cl)c32)C1 [BCD-BTK-125, (R)-1-(1-acryloylpiperidin-3-yl)-7-chloro-3-(4-(pyridin-4-yloxy)phenyl)-1H-pyrazolo[4,3-c]pyridine] | 21 ×10⁻⁶ cm/s | 13.2 ×10⁻⁶ cm/s | 0.6 | > 1000 nM | 4.18 | 27100 nM | – | – | – | – |
| C=CC(=O)N1CCC[C@@H](n2nc(-c3ccc(Oc4ccncc4)cc3)c3c(N)ncc(Cl)c32)C1 [BCD-BTK-139, (R)-1-(1-acryloylpiperidin-3-yl)-7-chloro-3-(4-(pyridin-4-yloxy)phenyl)-1H-pyrazolo[4,3-c]pyridin-4-amine] | 52.2 ×10⁻⁶ cm/s | 5.7 ×10⁻⁶ cm/s | 0.1 | 200 nM | 3.88 | 39600 nM | – | – | – | – |
| C=CC(=O)N1CCC[C@@H](n2nc(-c3ccc(C(=O)Nc4ccccn4)cc3)c3cncc(Cl)c32)C1 [BCD-BTK-201] | – | – | – | > 300 nM | – | – | >4.20 | > 50000 nM | – | – |
| C=CC(=O)N1CCC[C@@H](n2nc(-c3ccc(Oc4ccncc4C#N)cc3)c3cncc(Cl)c32)C1 [BCD-BTK-202, (R)-4-(4-(1-(1-acryloylpiperidin-3-yl)-7-chloro-1H-pyrazolo[4,3-c]pyridin-3-yl)phenoxy)nicotinonitrile] | 20.3 ×10⁻⁶ cm/s | 1.91 ×10⁻⁶ cm/s | – | > 500 nM | – | – | 4.10 | 32000 nM | – | – |
| C=CC(=O)N1CCC[C@@H](n2nc(-c3ccc(Oc4cccnc4C(N)=O)cc3)c3cncc(Cl)c32)C1 [BCD-BTK-220, 3-(4-{7-chloro-1-[(3R)-1-(prop-2-enoyl)piperidin-3-yl]-1H-pyrazolo[4,3-c]pyridin-3-yl}phenoxy)pyridine-2-carboxamide] | – | – | – | > 300 nM | – | – | >9.51 | > 50000 nM | 90.2% | 100% |
| C=CC(=O)N1CCC[C@@H](n2nc(-c3ccc(Oc4cccnc4C#N)cc3)c3cncc(F)c32)C1 [BCD-BTK-230, (R)-3-(4-(1-(1-acryloylpiperidin-3-yl)-7-fluoro-1H-pyrazolo[4,3-c]pyridin-3-yl)phenoxy)picolinonitrile] | 26.5 ×10⁻⁶ cm/s | 2.68 ×10⁻⁶ cm/s | 0.1 | > 1000 nM | – | – | 5.87 | 57600 nM | 93.3% | 99.9% |
| C=CC(=O)N1CCC[C@@H](n2nc(-c3ccc(C(=O)Nc4ccccn4)cc3)c3c(N)ncc(C#N)c32)C1 [BCD-BTK-234, (R)-4-(1-(1-acryloylpiperidin-3-yl)-4-amino-7-cyano-1H-pyrazolo[4,3-c]pyridin-3-yl)-N-(pyridine-2-yl)benzamide] | 8.2 ×10⁻⁶ cm/s | 9.2 ×10⁻⁶ cm/s | 1.1 | 25.4 nM | – | – | 3.81 | 36600 nM | 83.5% | 100% |
| C=CC(=O)N1CCC[C@@H](n2nc(-c3ccc(Oc4ccncc4)cc3)c3c(N)ncc(OC)c32)C1 [BCD-BTK-239, (R)-1-(1-acryloylpiperidin-3-yl)-4-amine-7-methoxy-3-(4-(pyridin-4-yloxy)phenyl)-1H-pyrazolo[4,3-c]pyridine] | – | – | – | 24.9 nM | – | – | 4.24 | 60200 nM | 80.3% | 100% |
| C=CC(=O)N1CCC[C@@H](n2nc(-c3ccc(C(=O)Nc4ccccn4)cc3)c3c(N)ncc(OC)c32)C1 [BCD-BTK-240, (R)-4-(1-(1-acryloylpiperidin-3-yl)-4-amino-7-methoxy-1H-pyrazolo[4,3-c]pyridin-3-yl)-N-(pyridin-2-yl)benzamide] | 18.2 ×10⁻⁶ cm/s | 11.1 ×10⁻⁶ cm/s | 0.61 | 7.78 nM | – | – | >7.11 | > 100000 nM | 100.0% | 100% |
| C=CC(=O)N1CCC[C@@H](n2nc(-c3ccc(C(=O)Nc4ccccn4)cc3)c3c(N)nccc32)C1 [BCD-BTK-242, (R)-4-(1-(1-acryloylpiperidin-3-yl)-4-amino-1H-pyrazolo[4,3-c]pyridin-3-yl)-N-(pyridin-2-yl)benzamide] | – | – | – | 11 nM | – | – | 3.03 | 52500 nM | 100.0% | 100% |
| C=CC(=O)N1CCC[C@@H](n2nc(-c3ccc(C(=O)Nc4cc(C(F)(F)F)ccn4)cc3)c3c(N)ncc(Cl)c32)C1 [BCD-BTK-251, (R)-4-(1-(1-acryloylpiperidin-3-yl)-4-amino-7-chloro-1H-pyrazolo[4,3-c]pyridin-3-yl)-N-(4-(trifluoromethyl)pyridin-2-yl)benzamide] | 8.3 ×10⁻⁶ cm/s | 1.5 ×10⁻⁶ cm/s | 0.2 | 10.1 nM | – | – | >13.70 | > 50000 nM | – | – |
| C=CC(=O)N1CCC[C@@H](n2nc(-c3ccc(C(=O)Nc4cc(C(F)(F)CCC)ccn4)cc3)c3cncc(Cl)c32)C1 [BCD-BTK-252, (R)-4-(1-(1-acryloylpiperidin-3-yl)-7-chloro-1H-pyrazolo[4,3-c]pyridin-3-yl)-N-(4-(1,1-difluorobutyl)pyridin-2-yl)benzamide] | – | – | – | > 1000 nM | – | – | >22.43 | > 100000 nM | – | – |
| C=CC(=O)N1CCC[C@@H](n2nc(-c3ccc(C(=O)Nc4ncccc4F)cc3)c3c(N)ncc(C#N)c32)C1 [BCD-BTK-258, 4-{4-amino-7-cyano-1-[(3R)-1-(prop-2-enoyl)piperidin-3-yl]-1H-pyrazolo[4,3-c]pyridin-3-yl}-N-(3-fluoropyridin-2-yl)benzamide] | – | – | – | 33.3 nM | – | – | >2.89 | > 50000 nM | – | 100% |
| C=CC(=O)N1CCC[C@@H](n2nc(-c3cnc(C(=O)Nc4cc(C(F)(F)CCC)ccn4)nc3)c3cncc(Cl)c32)C1 [BCD-BTK-292, (R)-5-(1-(1-acryloylpiperidin-3-yl)-7-chloro-1H-pyrazolo[4,3-c]pyridin-3-yl)-N-(4-(1,1-difluorobutyl)pyridin-2-yl)pyrimidine-2-carboxamide] | 11.6 ×10⁻⁶ cm/s | 0.07 ×10⁻⁶ cm/s | – | 63.5 nM | – | – | >29.81 | > 100000 nM | – | – |
